Test results published in patent US4244869A, “Benzodiazepine derivatives and process of making them” (Kali-Chemie A.G., priority 1972, dated 1981).

Columns and labels:
[1] = tested on: mice; experiment: Isolation aggressiveness (anxiety relieving and anti-aggressive activity); format: in vivo; conditions: Mus musculus, po, 0.5 h; orally, after 30 minutes, isolated mice
Method: (3) Anxiety relieving and anti-aggressive activity. Inhibition of the aggressiveness of a mouse caused by isolation.
Before the test the mice were kept for four weeks in strict isolation in single cages. After that time the mice which had been kept in isolation spontaneously attacked other mice which were introduced then and which had not been isolated. The test substances were administered to the isolated mice orally.
The results shown in these tests permit useful conclusions regarding the anxiety, stress and tension-relieving properties of the compound.

[2] = Acute seven-day toxicity (LD50), single oral application; parameters: species or system mice (white NMRI); conditions: mouse, in vivo, p.o., mice
Method: The acute seven-day toxicity is determined by a single application per os and intraperitoneally to white fasting NMRI mice. The computation of the LD50 values was effected via EDV by a probit analysis (Cavalli-Sforza, publisher Gustav Fischer, 1964, Grundbegriffe der Biometrie).

[3] = tested on: mice; experiment: Pentetrazol induced convulsions (anticonvulsive); format: in vivo; conditions: Mus musculus, po, 1 h, p.o., 60 min before pentetrazol 100 mg/kg s.c., read-out: Pentetrazol spasm ED50
Method: (§1) (2) Anti-convulsive properties
(a) Pentetrazol induced convulsions
The compounds were tested after per oral administration to groups of six mice each. Sixty minutes after application of the test compounds pentetrazol was injected subcutaneously at a dosage of 100 mg/kg. The appearance of clonic and tonic convulsions was checked through a total observation time of 45 minutes. The protective effects of the compounds against convulsions were determined in control tests with comparison compounds. The effective dose ED50 was computed from the probit logarithmic dosage curves (modified according to J. E. Blum et al. Arzneimittel-Forsch. 23, 377 [1973]).
(§2) The results obtained by these tests show the anticonvulsive activity of the test substances. According to the medical literature this is an important criteria for the appraising of the clinical effectiveness of tranquilizers.

[4] = tested on: mice; experiment: Maximum electroshock (anticonvulsive); format: in vivo; conditions: Mus musculus, po, 1 h, orally, 60 min before electroshock
Method: as §1
The test substances were applied orally to the animals. Sixty minutes after application electrodes were fastened to the ears of the mice and an electric shock was effected. The dose was then determined at which in half of the animals tonic contractions in the rear extremities were prevented. The computation of the ED50 was again effected by means of the above-noted probit analysis (modified according to J. Swinyard, J. Pharmacol. exptl. Therap.-106, 93 [1952]).
as §2

[5] = tested on: mice; experiment: Test de la traction (musculotropic properties); format: in vivo; conditions: for Quotient 2: ED50 test de la traction / ED50 isolation aggressiveness; for ED50: Mus musculus, po, 2 h, p.o., after 120 minutes, mice
Method: (4) Musculotropic properties
This test is called the "test de la traction". In this test the compounds were administered to the mice per os. After 120 minutes the mice were suspended with their front paws from a thin horizontally extending wire. […] These tests have the purpose to check the effects on the muscle tone by the compounds.
The ED50 values was effected via EDV by a probit analysis.

[6] = tested on: mice; experiment: Prolongation of hexobarbital induced sleep (C.N.S. quieting properties); format: in vivo; conditions: for Quotient 1: ED50 elongation of hexobarbital induced sleep / ED50 isolation aggressiveness; for ED50: Mus musculus, po, 0.5 h, p.o., 30 min before hexobarbital 64 mg/kg i.v., prolongation by a factor of 4 in half of the mice
Method: (5) C.N.S. quieting properties
(Prolongation of hexobarbital induced sleep)
The test substance was applied to the mice per os. The animals after 30 minutes received additionally an intravenous injection of 64 mg/kg of hexobarbital. […] The duration of this lateral position was then compared with the control group which had been treated only with hexobarbital.
As ED50 that dose was defined at which with one-half of the animals a prolongation of the lateral position occurred by a factor of 4 as against the control group (G. M. Everett, Nature 177, 1238 [1956]).

Row | SMILES | ED50 [1] | LD50 at 168 h [2] | ED50 [3] | ED50 [4] | Quotient 2 [5] | ED50 [5] | Quotient 1 [6] | ED50 [6]
1 | COCC1CN=C(c2ccccc2Cl)c2cc(Br)ccc2N1C (stereo not drawn) [Compound 1, 7-bromo-1-methyl-2-methoxymethyl-5-(2'-chlorophenyl)-1H-2,3-dihydro-1,4-benzodiazepin] | 3.1 mg/kg | 1580 mg/kg | 0.9 mg/kg | 3 mg/kg | 28.1 | 87 mg/kg | 4.9 | 15.2 mg/kg
2 | CCOCC1CN=C(c2ccccc2Cl)c2cc(Br)ccc2N1C (stereo not drawn) [Compound 2, 7-bromo-1-methyl-2-ethoxymethyl-5-(2'-chlorophenyl)-1H-2,3-dihydro-1,4-benzodiazepin] | 4.1 mg/kg | > 1470 mg/kg | 2.2 mg/kg | 24.5 mg/kg | 8.5 | 34.9 mg/kg | 10.2 | 41.9 mg/kg
3 | COCC1CN=C(c2ccccc2F)c2cc(Br)ccc2N1C (stereo not drawn) [Compound 3, 7-bromo-1-methyl-2-methoxymethyl-5-(2'-fluorophenyl)-1H-2,3-dihydro-1,4-benzodiazepin] | 10.7 mg/kg | 1580 mg/kg | 0.5 mg/kg | 5 mg/kg | 5.4 | 58.3 mg/kg | 0.9 | 10.6 mg/kg
4 | COCC1CN=C(c2ccccc2Cl)c2cc(Cl)ccc2N1C (stereo not drawn) [Standard I, 7-chloro-1-methyl-2-methoxymethyl-5-(2'-chlorophenyl)-1H-2,3-dihydro-1,4-benzodiazepin, reference compound] | 68 mg/kg | 1780 mg/kg | 2 mg/kg | 26 mg/kg | 2.4 | 163 mg/kg | 0.17 | 11.7 mg/kg
5 | CN1C(=O)CN=C(c2ccccc2)c2cc(Cl)ccc21 [Standard II, 7-chloro-1-methyl-5-phenyl-1,3-dihydro-2H-1,4-benzodiazepin-2-one, reference compound] | 3.6 mg/kg | – | 0.5 mg/kg | 9 mg/kg | 1.2 | 4.2 mg/kg | 0.42 | 1.5 mg/kg
